Laboratory results as given in patent US10449257B2, “Self-assembled composite ultrasmall peptide-polymer hydrogels” (Agency for Science, Technology and Research, priority 2011, dated 2019).
Values joined by “and” are separate entries in the source; they are usually repeats but may differ in a detail not shown here. Identical values can stand only once. Where a SMILES comes first, the peptide text is derived from it. Where no end group is shown, it is not given here.

Experiments:
plasmid DNA = assay: Composite peptide-DNA hydrogels: DNA loading, encapsulation and release; type: physicochemical; conditions: for amount of DNA that can be incorporated into the composite hydrogel: plasmid DNA loading
Protocol: Various peptides (AcLD6, i.e. Ac-LIVAGD, SEQ ID NO: 65; AcLK6, i.e. Ac-LIVAGK, SEQ ID NO: 66; AcLS6, i.e. Ac-LIVAGS, SEQ ID NO: 67) were used to encapsulate plasmid DNA, forming composite peptide-DNA hydrogels (A). […] When the composite hydrogels were incubated with DNAse, digested DNA fragments were not observed, compared to the naked DNA control. […] Potential applications include synthetic cell culture substrates that mediate sustained DNA, mRNA, siRNA and short hairpin RNA delivery (C).
The peptide sequence (particularly the polar head group) and concentration plays a significant role in determining the maximum amount of DNA that can be incorporated into the composite hydrogel.
Even after 10 days, at least 80% of the DNA loaded remained in composite hydrogel. In particular, the Ac-LIVAGK (L)-DNA hydrogel retained 95% of the DNA added. The release of the nucleic acid can potentially be modulated by the peptide composition.

[1] = Peptide stability studies (TGA, 1H-NMR, HPLC-MS after UV or autoclave treatment); type: physicochemical; conditions: for decomposition by 1H-NMR: UV treated (2 h, 254 nm) or autoclaved (30 min, 120° C.); for degradation by HPLC-MS: following UV and autoclave treatment
[2] = Pilot study with 4 mice (10 days): blood cell counts after hydrogel implant; type: in vivo; conditions: 30 μL gel implant
Excerpt: There were no behavioral changes or weight loss following implantation for up to 2 months, and there was no significant difference in red or white blood cell counts or blood chemistry (liver and kidney function) between mice implanted with hydrogels and sham operated mice.

[3] = test system: human derived adipose stem cells; assay: Subcutaneous implantation of hydrogels seeded with human derived adipose stem cells; type: in vivo; conditions: nude mice, after 45 days
Excerpt: FIG. 16. In vivo scaffold for adipose tissue regeneration Fat pad observed under the skeletal muscle layer in the region of the human adipose stem cell (hASC) implant 45 days post-implantation (A-C). The transplanted cells have the appearance of normal mature adipose tissue (D)—adipocytes with dark nuclei at edge, cells filled with fat.

[4] = SCID mice, listed as Ac-LIVAGK (L) gel

Molecule	amount of DNA that can be incorporated into the composite hydrogel (plasmid DNA)	decomposition by 1H-NMR [1]	degradation by HPLC-MS [1]	erythrocytes [2, 4]	lymphocytes [2, 4]	monocytes [2, 4]	thrombocytes [2, 4]	basophils ([2]; normal mouse)	eosinophils ([2]; normal mouse)	erythrocytes ([2]; normal mouse)	lymphocytes ([2]; normal mouse)	monocytes ([2]; normal mouse)	neutrophils ([2]; normal mouse)	thrombocytes ([2]; normal mouse)	encapsulating and trapping of plasmid DNA (plasmid DNA; composite peptide-DNA hydrogel)	release of the DNA (plasmid DNA; over the course of several days)	adipose tissue formation under the implant site [3]
Ac-LIVAGD [AcLD6]	lowest threshold for DNA loading	do not decompose	minimal														
CC[C@H](C)[C@H](NC(=O)[C@H](CC(C)C)NC(C)=O)C(=O)N[C@H](C(=O)N[C@@H](C)C(=O)NCC(=O)N[C@@H](CCCCN)C(=O)O)C(C)C [AcLK6, Ac-LIVAGK] (Ac-LIVAGK-OH)	could integrate the highest concentration of DNA			9.29 M/uL and 11.33 M/uL	0.88 K/uL and 0.9 K/uL	0.22 K/uL and 0.12 K/uL	0.607 M/uL and 0.978 M/uL	0.02 K/uL	0.11 K/uL	10.65 M/uL	3.76 K/uL	0.42 K/uL	1.6 K/uL	0.833 M/uL	extremely efficient in encapsulating and trapping the DNA	minimal release of the DNA	formation of fat pads
Ac-IVD (Ac-Ile-Val-Asp) [AcID3]		do not decompose	minimal														
